Assays:
[1] = Mean particle size of Compound (II)/silicone oil suspension by laser diffraction, with and without sonication; type: physicochemical; conditions: 20 weight % Compound (II) suspension after wet pulverization, before silicone oil addition
Procedure: Suspensions containing Compound (II) and silicone oil in the contents presented in Table 4 were prepared according to the following method. A 0.1% or 1% silicone oil emulsion prepared by diluting Dow Corning® 365, 35% Dimethicone NF Emulsion (produced by Dow Corning Corporation) in purified water was used as the silicone oil. A sodium carboxymethylcellulose/mannitol/sodium dihydrogenphosphate solution was used as a dispersion medium. The solids content of Compound (II) was adjusted to 10 to 20 weight %. No foaming occurred in any of the suspensions.
An aqueous suspension (200 mg Compound (II)/1.1 to 2 mL) containing Compound (II) and silicone oil was prepared as follows. Note that the Compound (II) suspension was prepared in the same manner as in Example 1 except that the pulverizing time using a high-pressure homogenizer was shortened.
A Compound (II) bulk powder was suspended in a dispersion medium at 20 weight %. […]
(§1) The mean particle size of the suspension prepared as described above was measured using a SALD-3000J or SALD-3100 Laser Diffraction Particle Size Analyzer (produced by Shimadzu Corporation). […]
(§2) Separately, the suspension was sonicated for 1 min with an ultrasonic wave generator attached to the particle size analyzer, and the mean particle size of the treated suspension was measured as described above.

[2] = Mean particle size of aripiprazole/silicone oil suspension by laser diffraction, with and without sonication; type: physicochemical; conditions: 20 weight % aripiprazole suspension after wet pulverization, before silicone oil addition
Procedure: Suspensions containing aripiprazole and silicone oil in the contents presented in Table 1 were prepared according to the following method. A 0.1% or 1% silicone oil emulsion prepared by diluting Dow Corning® 365, 35% Dimethicone NF Emulsion (produced by Dow Corning Corporation) in purified water was used as the silicone oil. A sodium carboxymethylcellulose/mannitol/sodium dihydrogenphosphate solution was used as a dispersion medium. The solids content of the aripiprazole was adjusted to about 10 to 20 weight %. No foaming occurred in any of the suspensions.
An aqueous suspension (200 mg aripiprazole/1.1 to 2 mL) containing aripiprazole (IM Depot) and silicone oil was prepared as follows.
Note that the aripiprazole suspension was prepared according to a wet pulverization method that uses a high-pressure homogenizer (see Japanese Patent Application No. 2007-200088 filed by Otsuka Pharmaceutical Co., Ltd.).
An aripiprazole hydrate bulk powder was suspended in a dispersion medium at 20 weight %. […]
as §1, §2

Structure (SMILES) | Mean primary particle size of the resulting suspension [1] | Mean primary particle size of the resulting suspension [2]
O=c1ccc2ccc(OCCCCN3CCN(c4cccc5sccc45)CC3)cc2[nH]1 [Compound (II), 7-[4-(4-benzo[b]thiophen-4-yl-piperazin-1-yl)butoxy]-1H-quinolin-2-one] | 5.3 μm | –
O=C1CCc2ccc(OCCCCN3CCN(c4cccc(Cl)c4Cl)CC3)cc2N1 [aripiprazole, Aripiprazole] | – | 2.0 μm
